Measured values as given in ChEMBL document CHEMBL1201862, “PubChem BioAssay data set” (2004).
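How tested: cells in 96-well plates exposed to compound for 48 hours at five concentrations. GI50 marks 50% less growth.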 Activity calls are given as the source filed them. Cut-off read from the data, not from the text of the source: active = GI50 up to about 1.1 µM and inactive = higher.

Legend:
Assay in all cases: growth of human tumour cells (NCI), 48 h
[1] = test system: 786-0
[2] = test system: A549
[3] = test system: CAKI-1
[4] = test system: DMS-273
[5] = test system: EKVX
[6] = test system: HT-29
[7] = test system: IGROV-1
[8] = test system: KM12
[9] = test system: NCI-H23
[10] = test system: OVCAR-4
[11] = test system: SF-268
[12] = test system: SK-MEL-2
[13] = test system: SW-620
[14] = test system: UACC-257
[15] = test system: HCT-116
[16] = test system: SR

Measured: GI50

CC1=C(C(=O)CC(=O)C(=O)NC2C3CC4CC(C3)CC2C4)Sc2ccccc2N1 (centres undefined)
inactive: [1] > 100 µM | [2] > 100 µM | [3] 99.1 µM | [4] > 100 µM | [5] > 100 µM | [6] > 100 µM | [7] > 100 µM | [8] > 86.3 µM | [9] > 100 µM | [10] > 100 µM | [11] > 94.8 µM | [12] > 100 µM | [13] > 100 µM | [14] > 100 µM

CCCCCCCCCCCCCC(=O)OC1C(CO)OC(=O)C1O (centres undefined)
inactive: [1] > 100 µM | [2] > 100 µM | [3] > 100 µM | [4] > 100 µM | [5] > 100 µM | [15] > 100 µM | [6] > 100 µM | [7] > 100 µM | [8] > 100 µM | [9] > 100 µM | [10] > 100 µM | [11] > 100 µM | [12] > 100 µM | [13] > 100 µM | [14] > 100 µM

CCN(CC)C(=O)CC12CCCCC1=Nc1ccccc12 (centres undefined)
inactive: [1] > 100 µM | [2] > 100 µM | [3] > 100 µM | [4] > 100 µM | [5] > 100 µM | [15] > 100 µM | [6] > 100 µM | [7] > 100 µM | [8] > 100 µM | [9] > 100 µM | [10] > 100 µM | [12] > 100 µM | [13] > 100 µM | [14] > 100 µM

Cc1nc2c(n1Cc1ccc(Cl)cc1)C(=O)c1ccccc1C2=O
inactive: [1] 5.68 µM | [2] 17.4 µM | [4] 2.62 µM | [5] > 75 µM | [15] 2.6 µM | [6] 4.08 µM | [7] > 75 µM | [8] > 75 µM | [9] > 75 µM | [10] > 75 µM | [11] 5.09 µM | [12] > 75 µM | [16] 1.32 µM | [14] > 75 µM

CC(C)=CC(=O)N(C)C1C2CN3CCC(O2)C13 (centres undefined)
inactive: [1] > 100 µM | [2] > 100 µM | [3] > 100 µM | [4] > 100 µM | [5] > 100 µM | [15] > 100 µM | [6] > 100 µM | [7] > 100 µM | [8] > 100 µM | [9] > 100 µM | [10] > 100 µM | [11] > 100 µM | [12] > 100 µM | [13] > 100 µM | [14] > 100 µM

Cn1c(=O)nc2n(-c3ccc(Cl)cc3)c(-c3ccccc3)c(-c3ccccc3)nc-2c1=O
inactive: [1] 29.8 µM | [2] 31.1 µM | [3] 24.8 µM | [4] 22.6 µM | [5] 47 µM | [6] 32.1 µM | [7] 30.1 µM | [8] 23.8 µM | [9] 66.2 µM | [10] 29.5 µM | [11] 23.6 µM | [12] 23.6 µM | [13] 40.7 µM | [14] 24.3 µM

CN(C)CCC(/C=C/c1ccccc1)=N\Nc1ccc(Cl)cc1
inactive: [1] 2.39 µM | [2] 2.52 µM | [4] 2.11 µM | [5] 2.49 µM | [15] 3.51 µM | [6] 3.86 µM | [7] 2.64 µM | [8] 2.84 µM | [9] 7.24 µM | [10] 5.21 µM | [11] 2.07 µM | [12] 2 µM | [13] 3.87 µM | [14] 4.18 µM

Cc1ccc(S(=O)(=O)OCC23CCC(CC2)C2CC23)cc1 (centres undefined)
inactive: [1] 61.2 µM | [2] 57.4 µM | [3] 49.8 µM | [4] 30.1 µM | [15] 53.8 µM | [6] 31.5 µM | [7] > 100 µM | [9] 38.3 µM | [10] 46 µM | [11] 37.5 µM | [16] 30.2 µM | [13] 87.1 µM | [14] 28.6 µM

O=[N+]([O-])c1ccc2nc(/C(=N/Nc3ccccc3)C(O)c3ccc(Cl)cc3Cl)c(O)nc2c1 (centres undefined)
inactive: [1] > 100 µM | [2] > 100 µM | [4] 39 µM | [5] > 100 µM | [15] > 100 µM | [6] > 100 µM | [7] > 100 µM | [8] 49.3 µM | [9] > 100 µM | [10] > 100 µM | [11] > 100 µM | [12] > 100 µM | [16] 29.6 µM | [14] > 100 µM

CCc1cccc(C)c1NC(=O)CC1C(=O)Nc2ccccc2[S+]1[O-] (centres undefined)
inactive: [1] 47.5 µM | [2] 39.1 µM | [3] 53.6 µM | [4] 42.2 µM | [15] 35.8 µM | [6] 33.4 µM | [8] 54.2 µM | [9] 31.3 µM | [10] 28.3 µM | [11] 42.2 µM | [12] 43.5 µM | [16] 34 µM | [13] 48.3 µM | [14] 31.8 µM

S=C(N/N=C/c1ccco1)NC12CC3CC(CC(C3)C1)C2
inactive: [1] 62.7 µM | [2] > 100 µM | [3] > 100 µM | [4] 6.05 µM | [5] > 100 µM | [15] > 100 µM | [6] 31.4 µM | [7] > 100 µM | [8] > 100 µM | [9] > 100 µM | [10] 65.3 µM | [11] > 100 µM | [12] > 100 µM | [13] > 100 µM | [14] 32.2 µM

CNc1nnnn1C1OC(CO)C(O)C1O (centres undefined)
inactive: [1] > 100 µM | [2] > 100 µM | [3] > 100 µM | [4] > 100 µM | [5] > 100 µM | [15] > 100 µM | [6] > 100 µM | [7] > 100 µM | [8] > 100 µM | [11] > 100 µM | [12] > 100 µM | [13] > 100 µM | [14] > 100 µM

CCCCOC(=O)NC(=O)c1cn(C2CCCCC2)c(=O)[nH]c1=O
inactive: [1] 18.6 µM | [2] 38.5 µM | [3] > 10 µM | [4] > 100 µM | [5] > 100 µM | [15] 21.5 µM | [6] 59.4 µM | [7] 39.2 µM | [8] 86.1 µM | [9] 33 µM | [10] 21.8 µM | [11] 30.8 µM | [12] 38 µM | [13] > 100 µM | [14] > 100 µM

COC(=O)C(CCCN1C(=O)c2ccccc2C1=O)C(=O)OC
inactive: [1] > 100 µM | [2] > 100 µM | [3] > 100 µM | [4] > 100 µM | [5] > 100 µM | [15] > 100 µM | [6] > 100 µM | [7] > 100 µM | [8] > 100 µM | [9] > 100 µM | [10] > 100 µM | [11] > 100 µM | [12] > 100 µM | [13] > 100 µM | [14] > 100 µM
